Experimental data reported in patent US11395857B2, “Radiolabeled melanocortin 1 receptor-specific alpha-melanocyte-stimulating hormone analogues for imaging or therapy” (PROVINCIAL HEALTH SERVICES AUTHORITY, priority 2018, dated 2022).
Like-named read-outs stand apart in the source and are kept apart here.

Test: Biodistribution of 68Ga-labeled peptide in mice bearing B16F10 mouse melanoma
Assay type: in vivo, C57BL/6J mice
Settings: iv, total radioactivity; for tissue uptake at 2 h: 2 h p.i. unblocked
Experimental: The B16-F10 melanoma cell line (Mus musculus) used in the tumor model was obtained commercially from ATTC (CRL-6475). Cells were cultured in Dulbecco's Modified Eagle's Medium (DMEM, StemCell Technologies) supplemented by 10% FBS, 100 U/mL penicillin and 100 μg/mL streptomycin at 37° C. in a humidified incubator containing 5% CO2. Cells grown to roughly 90% confluence were washed with sterile phosphate-buffered saline (lx PBS, pH 7.4), followed by trypsinization. For tumour implantation, C57BL/6J mice were anesthetized by inhalation with 2% isoflurane in 2.0 L/min of oxygen, 2×10^6 B16-F10 cells were inoculated subcutaneously on right dorsal flank. Mice were imaged or used in biodistribution studies once the tumour reached 6-8 mm in diameter.
Similar to PET/CT imaging, tumour-bearing mice were injected with 1-2 MBq of ^68Ga-labeled CCZ01099 via tail vein under anesthesia with or without co-injection of 0.5 mg of MC1R-specific inhibitor BMS 470539. At 1 or 2 h p.i., the mice were anesthetized again, and euthanized by CO2 inhalation. Blood was promptly withdrawn, and the organs of interest were harvested, rinsed with 1×PBS (pH 7.4), and blotted dry. Each organ was then weighed and the radioactivity of the collected tissue was measured using a Wallac WIZARD2 gamma counter (Perkin Elmer), normalized to the injected dose using a standard curve and expressed as the percentage of the injected dose per gram of tissue (% ID/g). Table 3 summarizes the biodistribution data of ^68Ga-labeled CCZ01099 at 1 and 2 h p.i., as well as 1 h p.i. with co-injection of 0.5 mg of MC1R-specific inhibitor BMS 470539. Minimal background tissue radioactivity accumulation was observed, except for kidney, which is expected as the radiolabeled peptides were cleared through the renal pathway.

Work on CCCC[C@H](NC(=O)CN1CCC(NC(=O)CN2CCN(CC(=O)O)CCN(CC(=O)O)CCN(CC(=O)O)CC2)CC1)C(=O)N[C@H]1CC(=O)NCCCC[C@@H](C(N)=O)N(C)C(=O)[C@H](Cc2c[nH]c3ccccc23)N(C)C(=O)[C@H](CCCNC(=N)N)N(C)C(=O)[C@@H](Cc2ccccc2)NC(=O)[C@H](Cc2c[nH]cn2)N(C)C1=O [^68Ga-labeled CCZ01099, metal not drawn] yielded a tissue uptake at 1 h (B16F10 tumour, 1 h p.i. unblocked, C57BL/6J mice, B16F10 melanoma, read-out: Biodistribution, B16F10 tumour) of 6.12 ± 1.43 %ID/g, a tissue uptake at 2 h (B16F10 tumour, C57BL/6J mice, B16F10 melanoma, read-out: Biodistribution, B16F10 tumour) of 5.22 ± 1.3 %ID/g and a tissue uptake at 1 h (C57BL/6J, B16F10 tumour, with BMS 470539 (MC1R-specific inhibitor), 0.5 mg co-injected, 1 h p.i. blocked, co-injection of 0.5 mg BMS 470539, read-out: Biodistribution, B16F10 tumour) of 0.6 ± 0.15 %ID/g. For the same compound, the tissue uptake at 1 h (C57BL/6J, adrenal glands, with BMS 470539 (MC1R-specific inhibitor), 0.5 mg co-injected, 1 h p.i. blocked, co-injection of 0.5 mg BMS 470539, read-out: Biodistribution, Adrenal glands) was 0.45 ± 0.29 %ID/g, the tissue uptake at 1 h (C57BL/6J, bone, with BMS 470539 (MC1R-specific inhibitor), 0.5 mg co-injected, 1 h p.i. blocked, co-injection of 0.5 mg BMS 470539, read-out: Biodistribution, Bone) was 0.17 ± 0.1 %ID/g and the tissue uptake at 1 h (C57BL/6J, brain, with BMS 470539 (MC1R-specific inhibitor), 0.5 mg co-injected, 1 h p.i. blocked, co-injection of 0.5 mg BMS 470539, read-out: Biodistribution, Brain) was 0.03 ± 0.02 %ID/g. The tissue uptake at 1 h (C57BL/6J, fat, with BMS 470539 (MC1R-specific inhibitor), 0.5 mg co-injected, 1 h p.i. blocked, co-injection of 0.5 mg BMS 470539, read-out: Biodistribution, Fat) was 0.04 ± 0.02 %ID/g, the tissue uptake at 1 h (C57BL/6J, heart, with BMS 470539 (MC1R-specific inhibitor), 0.5 mg co-injected, 1 h p.i. blocked, co-injection of 0.5 mg BMS 470539, read-out: Biodistribution, Heart) was 0.13 ± 0.02 %ID/g and the tissue uptake at 1 h (C57BL/6J, intestine, with BMS 470539 (MC1R-specific inhibitor), 0.5 mg co-injected, 1 h p.i. blocked, co-injection of 0.5 mg BMS 470539, read-out: Biodistribution, Intestine) was 0.17 ± 0.05 %ID/g. For the same compound, the tissue uptake at 1 h (C57BL/6J, kidneys, with BMS 470539 (MC1R-specific inhibitor), 0.5 mg co-injected, 1 h p.i. blocked, co-injection of 0.5 mg BMS 470539, read-out: Biodistribution, Kidneys) was 2.62 ± 0.91 %ID/g, the tissue uptake at 1 h (C57BL/6J, liver, with BMS 470539 (MC1R-specific inhibitor), 0.5 mg co-injected, 1 h p.i. blocked, co-injection of 0.5 mg BMS 470539, read-out: Biodistribution, Liver) was 0.38 ± 0.11 %ID/g and the tissue uptake at 1 h (C57BL/6J, lungs, with BMS 470539 (MC1R-specific inhibitor), 0.5 mg co-injected, 1 h p.i. blocked, co-injection of 0.5 mg BMS 470539, read-out: Biodistribution, Lungs) was 0.34 ± 0.13 %ID/g. It also gave a tissue uptake at 1 h (C57BL/6J, muscle, with BMS 470539 (MC1R-specific inhibitor), 0.5 mg co-injected, 1 h p.i. blocked, co-injection of 0.5 mg BMS 470539, read-out: Biodistribution, Muscle) of 0.08 ± 0.03 %ID/g, a tissue uptake at 1 h (C57BL/6J, pancreas, with BMS 470539 (MC1R-specific inhibitor), 0.5 mg co-injected, 1 h p.i. blocked, co-injection of 0.5 mg BMS 470539, read-out: Biodistribution, Pancreas) of 0.08 ± 0.01 %ID/g and a tissue uptake at 1 h (C57BL/6J, seminal glands, with BMS 470539 (MC1R-specific inhibitor), 0.5 mg co-injected, 1 h p.i. blocked, co-injection of 0.5 mg BMS 470539, read-out: Biodistribution, Seminal glands) of 0.07 ± 0.03 %ID/g. It also gave a tissue uptake at 1 h (C57BL/6J, spleen, with BMS 470539 (MC1R-specific inhibitor), 0.5 mg co-injected, 1 h p.i. blocked, co-injection of 0.5 mg BMS 470539, read-out: Biodistribution, Spleen) of 0.52 ± 0.28 %ID/g, a tissue uptake at 1 h (C57BL/6J, stomach, with BMS 470539 (MC1R-specific inhibitor), 0.5 mg co-injected, 1 h p.i. blocked, co-injection of 0.5 mg BMS 470539, read-out: Biodistribution, Stomach) of 0.19 ± 0.12 %ID/g and a tissue uptake at 1 h (C57BL/6J, testes, with BMS 470539 (MC1R-specific inhibitor), 0.5 mg co-injected, 1 h p.i. blocked, co-injection of 0.5 mg BMS 470539, read-out: Biodistribution, Testes) of 0.1 ± 0.02 %ID/g. For the same compound, the tissue uptake at 1 h (C57BL/6J, thyroid, with BMS 470539 (MC1R-specific inhibitor), 0.5 mg co-injected, 1 h p.i. blocked, co-injection of 0.5 mg BMS 470539, read-out: Biodistribution, Thyroid) was 0.13 ± 0.05 %ID/g, the tissue uptake at 1 h (C57BL/6J, whole blood, with BMS 470539 (MC1R-specific inhibitor), 0.5 mg co-injected, 1 h p.i. blocked, co-injection of 0.5 mg BMS 470539, read-out: Biodistribution, Blood) was 0.27 ± 0.04 %ID/g and the tissue uptake at 1 h (adrenal glands, 1 h p.i. unblocked, C57BL/6J mice, B16F10 melanoma, read-out: Biodistribution, Adrenal glands) was 0.71 ± 0.67 %ID/g. For the same compound, the tissue uptake at 2 h (adrenal glands, C57BL/6J mice, B16F10 melanoma, read-out: Biodistribution, Adrenal glands) was 0.33 ± 0.19 %ID/g, the tissue uptake at 1 h (bone, 1 h p.i. unblocked, C57BL/6J mice, B16F10 melanoma, read-out: Biodistribution, Bone) was 0.32 ± 0.16 %ID/g and the tissue uptake at 2 h (bone, C57BL/6J mice, B16F10 melanoma, read-out: Biodistribution, Bone) was 0.1 ± 0.03 %ID/g. It also gave a tissue uptake at 1 h (brain, 1 h p.i. unblocked, C57BL/6J mice, B16F10 melanoma, read-out: Biodistribution, Brain) of 0.05 ± 0.04 %ID/g, a tissue uptake at 2 h (brain, C57BL/6J mice, B16F10 melanoma, read-out: Biodistribution, Brain) of 0.01 %ID/g and a tissue uptake at 1 h (fat, 1 h p.i. unblocked, C57BL/6J mice, B16F10 melanoma, read-out: Biodistribution, Fat) of 0.09 ± 0.04 %ID/g. The tissue uptake at 2 h (fat, C57BL/6J mice, B16F10 melanoma, read-out: Biodistribution, Fat) was 0.02 ± 0.01 %ID/g, the tissue uptake at 1 h (heart, 1 h p.i. unblocked, C57BL/6J mice, B16F10 melanoma, read-out: Biodistribution, Heart) was 0.26 ± 0.07 %ID/g and the tissue uptake at 2 h (heart, C57BL/6J mice, B16F10 melanoma, read-out: Biodistribution, Heart) was 0.08 ± 0.01 %ID/g. The tissue uptake at 1 h (intestine, 1 h p.i. unblocked, C57BL/6J mice, B16F10 melanoma, read-out: Biodistribution, Intestine) was 0.37 ± 0.11 %ID/g, the tissue uptake at 2 h (intestine, C57BL/6J mice, B16F10 melanoma, read-out: Biodistribution, Intestine) was 0.53 ± 0.38 %ID/g and the tissue uptake at 1 h (kidneys, 1 h p.i. unblocked, C57BL/6J mice, B16F10 melanoma, read-out: Biodistribution, Kidneys) was 5.98 ± 1.24 %ID/g. For the same compound, the tissue uptake at 2 h (kidneys, C57BL/6J mice, B16F10 melanoma, read-out: Biodistribution, Kidneys) was 4.42 ± 0.55 %ID/g, the tissue uptake at 1 h (liver, 1 h p.i. unblocked, C57BL/6J mice, B16F10 melanoma, read-out: Biodistribution, Liver) was 0.54 ± 0.07 %ID/g and the tissue uptake at 2 h (liver, C57BL/6J mice, B16F10 melanoma, read-out: Biodistribution, Liver) was 0.44 ± 0.08 %ID/g. It also gave a tissue uptake at 1 h (lungs, 1 h p.i. unblocked, C57BL/6J mice, B16F10 melanoma, read-out: Biodistribution, Lungs) of 0.74 ± 0.14 %ID/g, a tissue uptake at 2 h (lungs, C57BL/6J mice, B16F10 melanoma, read-out: Biodistribution, Lungs) of 0.31 ± 0.05 %ID/g and a tissue uptake at 1 h (muscle, 1 h p.i. unblocked, C57BL/6J mice, B16F10 melanoma, read-out: Biodistribution, Muscle) of 0.17 ± 0.05 %ID/g. The tissue uptake at 2 h (muscle, C57BL/6J mice, B16F10 melanoma, read-out: Biodistribution, Muscle) was 0.04 %ID/g, the tissue uptake at 1 h (pancreas, 1 h p.i. unblocked, C57BL/6J mice, B16F10 melanoma, read-out: Biodistribution, Pancreas) was 0.17 ± 0.04 %ID/g and the tissue uptake at 2 h (pancreas, C57BL/6J mice, B16F10 melanoma, read-out: Biodistribution, Pancreas) was 0.07 ± 0.01 %ID/g. The tissue uptake at 1 h (seminal glands, 1 h p.i. unblocked, C57BL/6J mice, B16F10 melanoma, read-out: Biodistribution, Seminal glands) was 0.11 ± 0.05 %ID/g, the tissue uptake at 2 h (seminal glands, C57BL/6J mice, B16F10 melanoma, read-out: Biodistribution, Seminal glands) was 0.04 ± 0.01 %ID/g and the tissue uptake at 1 h (spleen, 1 h p.i. unblocked, C57BL/6J mice, B16F10 melanoma, read-out: Biodistribution, Spleen) was 0.35 ± 0.07 %ID/g. The tissue uptake at 2 h (spleen, C57BL/6J mice, B16F10 melanoma, read-out: Biodistribution, Spleen) was 0.19 ± 0.03 %ID/g, the tissue uptake at 1 h (stomach, 1 h p.i. unblocked, C57BL/6J mice, B16F10 melanoma, read-out: Biodistribution, Stomach) was 0.26 ± 0.15 %ID/g and the tissue uptake at 2 h (stomach, C57BL/6J mice, B16F10 melanoma, read-out: Biodistribution, Stomach) was 0.2 ± 0.16 %ID/g. The tissue uptake at 1 h (testes, 1 h p.i. unblocked, C57BL/6J mice, B16F10 melanoma, read-out: Biodistribution, Testes) was 0.21 ± 0.06 %ID/g, the tissue uptake at 2 h (testes, C57BL/6J mice, B16F10 melanoma, read-out: Biodistribution, Testes) was 0.07 ± 0.01 %ID/g and the tissue uptake at 1 h (thyroid, 1 h p.i. unblocked, C57BL/6J mice, B16F10 melanoma, read-out: Biodistribution, Thyroid) was 0.31 ± 0.08 %ID/g. For the same compound, the tissue uptake at 2 h (thyroid, C57BL/6J mice, B16F10 melanoma, read-out: Biodistribution, Thyroid) was 0.16 ± 0.03 %ID/g, the tissue uptake at 1 h (whole blood, 1 h p.i. unblocked, C57BL/6J mice, B16F10 melanoma, read-out: Biodistribution, Blood) was 0.7 ± 0.15 %ID/g and the tissue uptake at 2 h (whole blood, C57BL/6J mice, B16F10 melanoma, read-out: Biodistribution, Blood) was 0.19 ± 0.01 %ID/g.
